This note sets out measurements from ChEMBL document CHEMBL5375954, “Discovery and Evaluation of C6-Substituted Pyrazolopyrimidine-Based Bisphosphonate Inhibitors of the Human Geranylgeranyl Pyrophosphate Synthase and Evaluation of Their Antitumor Efficacy in Multiple Myeloma, Pancreatic Ductal Adenocarcinoma, and Colorectal Cancer” (J Med Chem, 2023).

In one experiment the target is T1, Geranylgeranyl pyrophosphate synthase (Homo sapiens, UniProt O95749).
T1 sequence (O95749 whole entry): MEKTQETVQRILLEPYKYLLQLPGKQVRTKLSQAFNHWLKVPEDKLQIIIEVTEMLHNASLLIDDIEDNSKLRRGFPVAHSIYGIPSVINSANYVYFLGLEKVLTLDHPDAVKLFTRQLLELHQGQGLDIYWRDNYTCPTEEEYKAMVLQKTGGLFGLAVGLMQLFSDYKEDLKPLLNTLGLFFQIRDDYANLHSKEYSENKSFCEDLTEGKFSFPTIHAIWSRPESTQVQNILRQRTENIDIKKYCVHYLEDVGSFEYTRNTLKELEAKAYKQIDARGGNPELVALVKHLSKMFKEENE
Briefly: Inhibition of N-terminal His6 tagged human GGPPS expressed in Escherichia coli BL21(DE3) cells in presence of FPP and [14C]IPP by scintillation counting analysis.
Conditions: not given
In the case of `O=C(Nc1ccc(F)cc1)c1cccc(-c2nc(NC(P(=O)(O)O)P(=O)(O)O)c3cn[nH]c3n2)c1`, the IC50 is 0.039 µM.

Turning to `Cn1cnc2c(NC(P(=O)(O)O)P(=O)(O)O)nc(-c3cccc(C(=O)Nc4ccc(C(F)(F)F)cc4)c3)nc21`, the IC50 was 0.013 µM.

On to `Cn1ncc2c(NC(P(=O)(O)O)P(=O)(O)O)nc(-c3cccc(C(=O)Nc4ccc(F)cc4)c3)nc21`, for which the IC50 was 0.031 µM.

Regarding `CCn1ncc2c(NC(P(=O)(O)O)P(=O)(O)O)nc(-c3cccc(C(=O)Nc4ccc(F)cc4)c3)nc21`, the IC50 came out at 0.029 µM.

As for `O=C(Nc1ccc(C(F)(F)F)cc1)c1cccc(-c2nc(NC(P(=O)(O)O)P(=O)(O)O)c3ccsc3n2)c1`, the IC50 was 0.012 µM.

`CC(C)n1ncc2c(NC(P(=O)(O)O)P(=O)(O)O)nc(-c3cccc(C(=O)Nc4ccc(F)cc4)c3)nc21`: the IC50 is 0.03 µM.

For the compound `CCn1cc2c(NC(P(=O)(O)O)P(=O)(O)O)nc(-c3cccc(C(=O)Nc4ccc(OC)c(F)c4)c3)nc2n1`, the IC50 stood at 0.067 µM.

Take `Cn1cnc2c(NC(P(=O)(O)O)P(=O)(O)O)nc(-c3cccc(C(=O)Nc4ccc(F)cc4)c3)nc21`: the IC50 amounted to 0.041 µM.

Turning to `CCn1ncc2c(NC(P(=O)(O)O)P(=O)(O)O)nc(-c3cccc(C(=O)Nc4ccc(C(F)(F)F)cc4)c3)nc21`, the IC50 came out at 0.03 µM.

`CC(C)n1ncc2c(NC(P(=O)(O)O)P(=O)(O)O)nc(-c3cccc(C(=O)Nc4ccc(C(F)(F)F)cc4)c3)nc21`: the IC50 stood at 0.02 µM.

With `O=C(Nc1ccc(F)cc1)c1cccc(-c2nc(NC(P(=O)(O)O)P(=O)(O)O)c3ccsc3n2)c1`, the IC50 is 0.018 µM.

The next experiment relates to RPMI-8226. Briefly: cells. The note with it: Homo sapiens, RPMI-8226, 72 h.
Turning to `O=C(Nc1ccc(F)cc1)c1cccc(-c2nc(NC(P(=O)(O)O)P(=O)(O)O)c3cn[nH]c3n2)c1`, the EC50 was more than 1 µM.

`Cn1cnc2c(NC(P(=O)(O)O)P(=O)(O)O)nc(-c3cccc(C(=O)Nc4ccc(C(F)(F)F)cc4)c3)nc21`: the EC50 stood at 0.51 µM.

With `Cn1ncc2c(NC(P(=O)(O)O)P(=O)(O)O)nc(-c3cccc(C(=O)Nc4ccc(F)cc4)c3)nc21`, the EC50 came out at 0.44 µM. This EC50 and that of the compound before are within 1.5-fold of each other.

Regarding `CCn1ncc2c(NC(P(=O)(O)O)P(=O)(O)O)nc(-c3cccc(C(=O)Nc4ccc(F)cc4)c3)nc21`, the EC50 was more than 1 µM.

As to `O=C(Nc1ccc(C(F)(F)F)cc1)c1cccc(-c2nc(NC(P(=O)(O)O)P(=O)(O)O)c3ccsc3n2)c1`, the EC50 stood at 0.16 µM. This lies in the sub-micromolar range.

`CC(C)n1ncc2c(NC(P(=O)(O)O)P(=O)(O)O)nc(-c3cccc(C(=O)Nc4ccc(F)cc4)c3)nc21` yielded an EC50 of more than 1 µM.

The compound `CCn1cc2c(NC(P(=O)(O)O)P(=O)(O)O)nc(-c3cccc(C(=O)Nc4ccc(OC)c(F)c4)c3)nc2n1` gave an EC50 of 0.552 µM. That is a sub-micromolar value.

Turning to `Cn1cnc2c(NC(P(=O)(O)O)P(=O)(O)O)nc(-c3cccc(C(=O)Nc4ccc(F)cc4)c3)nc21`, the EC50 is 0.67 µM.

As for `CCn1ncc2c(NC(P(=O)(O)O)P(=O)(O)O)nc(-c3cccc(C(=O)Nc4ccc(C(F)(F)F)cc4)c3)nc21`, the EC50 was more than 1 µM.

On to `CC(C)n1ncc2c(NC(P(=O)(O)O)P(=O)(O)O)nc(-c3cccc(C(=O)Nc4ccc(C(F)(F)F)cc4)c3)nc21`, for which the EC50 is more than 1 µM.

In turn, `O=C(Nc1ccc(F)cc1)c1cccc(-c2nc(NC(P(=O)(O)O)P(=O)(O)O)c3ccsc3n2)c1` returned an EC50 of 0.12 µM.

Usually IC50 stands for the concentration at which inhibition is half-maximal. As a reminder, the EC50 is the concentration that produces a half-maximal response.
